Results from patent US5827895A, “Hexahydrolupulones useful as anticancer agents” (Regents of the University of Minnesota, priority 1996, dated 1998).
Values after ≈ are worked out from the molar mass of the structure shown. “Also recorded” adds a separate entry of the source. Like-named read-outs stand apart in the source and are kept apart here.

Assays:
[1] = tested on: MCF-7 cells (human breast adenocarcinoma); assay: Trypan blue exclusion assay, cytostatic activity, MCF-7; format: cell-based; details: MCF7, incubation 48h, 3 experiments, read-out: ID50 (the source's name)
[2] = tested on: CEM cells (human acute lymphoblastic leukemia); assay: Trypan blue exclusion assay, cytostatic activity, CEM; format: cell-based; details: CCRF-CEM, incubation 48h, 4 experiments, read-out: ID50 (the source's name)
[3] = tested on: CEM vinblastin resistant cells; assay: Trypan blue exclusion assay, cytostatic activity, CEM vinblastin resistant; format: cell-based; details: Homo sapiens; CEM vin resistant; incubation 48h; 4 experiments; read-out: ID50 (the source's name)
[4] = tested on: Raji cells (human Burkitt lymphoma); assay: Trypan blue exclusion assay, cytostatic activity, Raji; format: cell-based; details: incubation 24h, 4 experiments, read-out: ID50 (the source's name)
[5] = tested on: KB cells (human oral epidermoid carcinoma); assay: Trypan blue exclusion assay, cytostatic activity, KB; format: cell-based; details: incubation 48h, 3 experiments, read-out: ID50 (the source's name)
[6] = tested on: HeLa S3 cells (human cervical epithelioid carcinoma); assay: Trypan blue exclusion assay, cytostatic activity, HeLa S3; format: cell-based; details: incubation 24h, 3 experiments, read-out: ID50 (the source's name)
MCF-7 cells = assay: Fluorescence activated cell sorting (FACS), cell cycle phase; format: cell-based, human; details: for cell cycle phase distribution: 48 hours
Protocol: Fluorescence activated cell sorting (FACS) was used to determine what percentage of cells could be found in the designated cell cycle phase after 48 hours of continuous HHC exposure. There are four distinct phases in the cell cycle which lead to duplication of the cell and its genetic material. In the G0/G1 phase the cell is at rest or is performing miscellaneous biosynthetic functions. During the S phase, DNA synthesis occurs which leads to replication of the chromosomes. G2 is the pre-mitotic interval while the M phase is the time during which the cell divides.
MCF-7 cells were exposed to concentrations of 1.5 μM and 25 μM of HHC, and DMSO. DMSO had no significant effect on the cell cycle, with a profile almost identical to that of the "no drug" control.

Staphylococcus aureus = assay: Growth of Staphylococcus aureus in LB broth by OD600 (FIG. 1); format: cell-based; details: 0.5-25 μM
Protocol: A single colony of Staphylococcus aureus was grown in 2 ml of Luria-Bertani(LB) broth overnight at 37° C. in a bacterial shaker with vigorous shaking. 0.5 ml of the culture was transferred to 250 ml LB and allowed to grow at 37° C. until the OD600 (optical density) reading was about 0.2 (a reading of 1 OD600 indicates a cell concentration of approximately 8×10^8 cells/ml). […] No-drug and DMSO solvent were used as controls. Aliquots of the bacterial culture were taken every 2 hours to obtain the OD600 reading.

Staphylococcus Aureas = assay: Minimum inhibitory concentration, Staphylococcus aureus; format: cell-based
[7] = tested on: MRSA (Methicillin resistant Staphylococcus A.); assay: Minimum inhibitory concentration, MRSA; format: cell-based, Staphylococcus aureus
[8] = tested on: Multidrug resistant Staphylococcus (except to Vancomycin); assay: Minimum inhibitory concentration, multidrug resistant Staphylococcus; format: cell-based
[9] = tested on: VRE (Vancomycin resistant enterococcus); assay: Minimum inhibitory concentration, VRE; format: cell-based
[10] = Determination of maximal tolerated dose (MTD), single intraperitoneal injection; details: mouse, in vivo, ip
Protocol: (§1) Eight groups of BDF1 mice (5 animals/group) were used to determine a maximal tolerated dose (MTD) for HHC.
(§2) All mice were weighed, the weight being used to determine blood volume for each animal. The amount of drug necessary to achieve a theoretical concentration of drug in the animal (e.g, 50, 100, 150 μM etc.) was calculated based on the formula: blood volume=8% body weight of the animal. Drug solutions were made using DMSO as the solvent and a single intraperitoneal injection of a volume of 100-120 μl was given. […] Based on the above, the MTD is determined to be at 200 μM (~6.5 mg/kg). To confirm the MTD, it is necessary to dose the animals with the predetermined MTD once a day for consecutive days following established experimental treatment times (i.e., 5 days for in vivo tumor inhibition studies).

BDF1 mice = assay: as above; details: mouse, in vivo, ip
Protocol: as §1, §2

[11] = tested on: DNA, RNA or protein synthesis; assay: Other studies on DNA, RNA or protein synthesis in cancer cells; format: cell-based
[12] = tested on: VRE (Vancomycin Resistant Enterococcus faeclum); details: threshold not given
Listeria monocytogenes = details: U.S. Pat. Nos. 5,286,506; 5,455,038; cited from earlier work
[13] = Mannering et al.; cited from earlier work
[14] = tested on: VRE (Vancomycin Resistant Enterococcus faeclum); assay: microbe, parasite or virus in culture
Protocol: (§3) HHC was also tested for effectiveness against various bacterial isolates obtained from human subjects.

Pseudomonas = assay: Minimum inhibitory concentration, Pseudomonas
[15] = tested on: OxaRSA (Oxacillin Resistant Staphylococcus aureus); assay: Patient isolates evaluated for antibiotic sensitivity, OxaRSA
Protocol: as §3

CC(C)CCC1=C(O)C(C(=O)C(C)C)=C(O)C(CCC(C)C)(CCC(C)C)C1=O [HHC, hexahydrocolupulone]
IC50 [1]: 1230 nM | IC50 [2]: 1970 nM | IC50 [3]: 2610 nM | IC50 [4]: 2190 nM | IC50 [5]: 850 nM | IC50 [6]: 1210 nM | cell cycle phase distribution (MCF-7 cells; 1.5 μM HHC): increase the number of cells in G0/G1 and decrease the number of cells in S phase | cell cycle phase distribution (MCF-7 cells; 25 μM HHC): decrease in the number of cells in G0/G1 and an increase in the number of cells in S phase | effect upon G1-S phase transition (MCF-7 cells; FACS): apparent effect upon the G1-S phase transition of the cell cycle; also recorded: has an effect upon the G1-S phase transition of the cell cycle | inhibition of bacterial growth (OD600) (Staphylococcus aureus): effective inhibitor of bacterial growth | MIC (Staphylococcus Aureas; Staphylococcus Aureas, read-out: MIC): 5 µM | MIC (Staphylococcus Aureas; read-out: MIC, HHC positive control): 2.03 µg/mL | MIC ([7]; MRSA): 2.5 µM (≈ 1.02 µg/mL) | cross resistance with other antibiotics ([7]; drug resistant MRSA): HHC is not | MIC [8]: 2.5 µM (≈ 1.02 µg/mL) | cross resistance with vancomycin [9]: not cross resistant with vancomycin | MIC ([9]; Enterococcus): 5 µM (≈ 2.03 µg/mL) | MTD [10]: ~6.5 mg/kg | maximal tolerated dose (MTD) (BDF1 mice): 200 µM | cytotoxic effect on cancer cells: effects upon DNA, RNA or protein synthesis [11]: not due to major effects upon DNA, RNA or protein synthesis | antibiotic sensitivity ([12]; patient A): S | antibiotic sensitivity ([12]; patient B): S | antibiotic sensitivity ([12]; patient C): S | growth inhibition of food pathogens (Listeria monocytogenes): can inhibit the growth of food pathogens, such as Listeria monocytogenes | activity relative to non-hydrogenated parent [13]: more active than colupulone | MIC ([14]; read-out: [HHC] (MIC), patient A, VRE): 1.01 µg/mL (≈ 2.5 µM) | MIC ([14]; read-out: [HHC] (MIC), patient B, VRE): 4.06 µg/mL (≈ 9.99 µM) | MIC ([14]; read-out: [HHC] (MIC), patient C, VRE): 2.03 µg/mL (≈ 4.99 µM) | MIC (Pseudomonas): > 100 µM | MIC ([15]; Staphylococcus aureus, read-out: [HHC] (MIC)): 1.01 µg/mL (≈ 2.5 µM) | antibiotic sensitivity ([15]; patient G, OxaRSA, threshold not given): S
